Test results taken from patent publication US5808139A (Ligand Pharmaceuticals Incorporated, priority 1994, dated 1998).
“Also recorded” adds a separate entry of the source.

How the values were obtained:
[1] = Wall et al., J. Nat. Prod. 1989; cited from earlier work
[2] = system: human progesterone receptor altered at the Tau-1 location; assay: Co-transfection assay in CV-1 cells, progesterone receptor altered at Tau-1, antagonist activity; type: cell-based
Method in brief: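 CV-1 cells co-transfected with RSV-LTR-driven human PR (altered at Tau-1) and a hormone-responsive luciferase reporter; antagonism measured against a fixed agonist concentration. Luciferase in cell extracts read, triplicate points, potency from concentration-response; […].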

T47D cells = assay: Alkaline phosphatase activity in T47D cells (induction and its inhibition); type: cell-based, human; conditions: ligand alone; three days
From the text: The functional activities of the cyclocymopol analogues in the human breast cell line, T47D, were also investigated. T47D cells have proven to be a particularly useful model to investigate the molecular actions of sex steroids because they contain endogenous functional receptors for, and respond to, progestins, and their respective antagonists. Moreover, these cells contain exceptionally high titers of progesterone receptors and are exquisitely sensitive to the actions of progestins in a manner quite similar to their actions in normal and neoplastic mammary epithelial cells. In T47D cells, progestins induce de novo synthesis of a plasma-associated alkaline phosphatase, which has been reported to be similar, if not identical, to the alkaline phosphatase present in the normal breast and human milk. These tests were conducted according to the following illustrative example. […] For routine induction of alkaline phosphatase, cells were treated for three days with two media changes and harvested as described below. […] Nuclei were sedimented at 2500 rpm, and the supernatant was saved as cytosol. The protein content of the cytosol was assayed by the method of Bradford. Alkaline phosphatase activity was determined by incubating one volume of cell extract with three volumes of 1 mg/ml p-nitrophenol phosphate prepared in DEAM (1M diethanolamine, pH=9, containing 2 mM magnesium chloride) at room temperature for 20 min. At the end of the incubation time, the reaction was stopped with an equal volume of 1N NaOH. Ten standards of p-nitrophenol were prepared in DEAM buffer and absorbance was read at 405 nm. Alkaline phosphatase activity is expressed as pmol p-nitrophenol formed/min/mg protein.

[3] = biological target: T1, human progesterone receptor (Homo sapiens, UniProt P06401); assay: Co-transfection (cis-trans) assay in CV-1 cells, agonist and antagonist mode; type: cell-based; parameters: expressed in transfected cells; host or cells: CV-1 cells (calcium phosphate transfection), whole cell extract; conditions: antagonist mode with 10^-8 M progesterone
T1 sequence (P06401 1-933): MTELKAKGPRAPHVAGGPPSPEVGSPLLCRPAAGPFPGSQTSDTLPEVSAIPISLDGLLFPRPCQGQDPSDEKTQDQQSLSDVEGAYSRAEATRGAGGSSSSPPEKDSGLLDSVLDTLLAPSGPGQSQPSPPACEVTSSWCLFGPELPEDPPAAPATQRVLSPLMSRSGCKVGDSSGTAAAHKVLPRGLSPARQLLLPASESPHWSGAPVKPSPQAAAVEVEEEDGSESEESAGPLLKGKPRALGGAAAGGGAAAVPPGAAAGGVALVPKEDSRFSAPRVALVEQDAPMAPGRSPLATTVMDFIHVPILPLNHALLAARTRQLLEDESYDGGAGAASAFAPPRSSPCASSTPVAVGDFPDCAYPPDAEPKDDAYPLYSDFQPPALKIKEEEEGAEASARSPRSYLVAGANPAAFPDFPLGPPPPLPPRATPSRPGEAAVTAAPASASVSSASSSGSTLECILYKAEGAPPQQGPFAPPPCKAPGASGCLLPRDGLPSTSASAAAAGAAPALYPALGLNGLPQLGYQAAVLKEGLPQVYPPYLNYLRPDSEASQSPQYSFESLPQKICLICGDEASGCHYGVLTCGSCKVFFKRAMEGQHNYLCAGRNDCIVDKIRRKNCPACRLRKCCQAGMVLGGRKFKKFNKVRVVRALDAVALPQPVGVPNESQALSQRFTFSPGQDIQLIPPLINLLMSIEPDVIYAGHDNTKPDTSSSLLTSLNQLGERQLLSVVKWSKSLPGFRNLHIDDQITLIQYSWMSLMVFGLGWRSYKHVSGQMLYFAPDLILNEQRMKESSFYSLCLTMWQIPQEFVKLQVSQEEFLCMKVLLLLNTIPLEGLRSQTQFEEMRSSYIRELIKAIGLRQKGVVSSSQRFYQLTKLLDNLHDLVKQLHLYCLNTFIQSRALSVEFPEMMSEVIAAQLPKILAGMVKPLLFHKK
From the text: This assay is described in further detail in U.S. Pat. Nos. 4,981,784 and 5,071,773, which are incorporated herein by reference. The co-transfection assay provides a method for identifying functional ligands (either agonists which mimic, or antagonists which inhibit, the effect of hormones) for ligand-responsive receptor proteins.
The co-transfection assay provides a mechanism to evaluate ability of a compound to function as an agonist or antagonist of the activity modulated by an intracellular receptor. The co-transfection assay mimics an in vivo system in the laboratory. In the co-transfection assay, a cloned gene for an intracellular receptor is introduced by transfection (a procedure to induce cells to take up foreign genes) into a background cell substantially devoid of endogenous intracellular receptors. This introduced gene directs the recipient cells to make the intracellular receptor protein. A second gene is also introduced (co-transfected) into the same cells in conjunction with the intracellular receptor gene. This second gene functions as a reporter for the transcription-modulating activity of the target intracellular receptor. The reporter acts as a surrogate for the products normally expressed by a gene under control of the target receptor and its natural hormone.
A preferred reporter gene is one which expresses the firefly enzyme luciferase. The co-transfection assay can detect small molecule agonists or antagonists of target intracellular receptors. Exposing the cells to an agonist ligand increases reporter activity in the transfected cells that can be conveniently measured, reflecting ligand-dependent, intracellular receptor-mediated increases in reporter transcription. To detect antagonists, the co-transfection assay is carried out in the presence of a constant concentration of an agonist known to induce a defined reporter signal. Increasing concentrations of a test antagonist will decrease the reporter signal. The co-transfection assay is therefore useful to detect both agonists and antagonists of specific intracellular receptors. It determines not only whether a compound interacts with a particular intracellular receptor, but also whether this interaction mimics (agonizes) or blocks (antagonizes) the effects of the natural regulatory molecules on target gene expression.
Co-transfected cells are exposed to a medium to which is added the potential ligand that is being evaluated. If the candidate ligand diffuses into the cell and binds to the receptor and the resulting complex functions as an agonist, it binds to the co-transfected reporter gene and initiates transcription. When that gene is one that expresses, for example, luciferase, luciferase is produced which catalyzes a light-emitting reaction with its substrate luciferin. Thus, after cell lysis and the introduction of luciferin, the amount of light produced relative to the concentration of candidate ligand used in the assay provides a measure of the potency and efficacy of the compound tested. Antagonist activity is evaluated by adding the candidate ligand and a known agonist to the co-transfected cells.
The receptor cDNA was introduced in a mammalian expression vector under the control of the Rous Sarcoma virus LTR. […] A reporter vector was also transfected, containing a firefly luciferase gene under the control of the hormone-responsive promoter. […] The level of luciferase activity was then measured in cell extracts. Light emission is directly proportional to the effectiveness of the hormone-receptor complex in activating gene expression.
A total of three replicates per concentration point were tested for each compound, and the EC50 was calculated for each positive response. Both agonist and antagonist activity for each test compound was determined in parallel.

[4] = biological target: T1, human progesterone receptor; assay: Progesterone receptor binding (displacement of 3H-progesterone, whole cell extract of transfected CV-1 cells); parameters: expressed in transfected cells; host or cells: CV-1 cells (calcium phosphate transfection), whole cell extract

Compound	Antimutagen activity [1]	Efficacy (% maximal response relative to RU-486), CV-1 cells ([2]; antagonist activity, relative to RU-486) [%]	IC50 ([2]; concentration required to reduce the maximal response by 50%, read-out: Potency (IC50), CV-1 cells) [µM]	Agonist activity, alkaline phosphatase induction (T47D cells)	Progesterone receptor agonist/antagonist activity [3]	Kd [4] [µM]
4-isocymobarbatol	highly active antimutagens					
C=C1CC[C@@H](Br)C(C)(C)[C@H]1Cc1cc(OC)c(Br)cc1O [SO-54, (3S)-cyclocymopol monomethyl ether]		< 20	> 10	functional agonists; also recorded: increased the activity of intracellular alkaline phosphatase in a concentration-dependent manner	progesterone receptor agonist activity	0.325
CC1(C)[C@@H](Br)CC[C@@]2(C)Oc3cc(Br)c(O)cc3C[C@@H]12 [cymobarbatol]	highly active antimutagens					
